Assay results taken from US20170182104A1, “COMPOSITION CONTAINING MASTERWORT EXTRACT” (AMOREPACIFIC CORPORATION, priority 2014, published 2017).

What was measured:
Type in all cases: cell-based, human
[1] = test system: NK1R (neurokinin 1 receptor) gene; experiment: Gene expression assay by real-time PCR: NK1R gene in melanocytes; settings: melanocytes (KaMC), 2 nM substance P, 5 days; relative to GAPDH, control group = 1
Description: (§1) Melanocytes (KaMC; KCTC 12015BP) deposited in the Korean Collection for Type Culture (KCTC) were cultured in M-254 medium (Gibco BRL, N.Y., USA) supplemented with Human Melanocyte Growth Supplement (HMGS; Gibco BRL, N.Y., USA) on a 6-well plate, while changing the medium every other day, in a 5% CO2 incubator at 37° C. until the cells occupied 95% of the plate area (95% confluence). […] The cells not treated with substance P or the masterwort (Peucedanum ostruthium) extract of Example 1 were used as a control group. After removing the medium form the melanocytes cultured on the 6-well plate, the cells were washed 2 times with cold phosphate-buffered saline (PBS) and the remaining water was completely removed. […] 1 μL of the RNA was quantified using Synergy II (Biotek, USA). […] After adding 10 μL of Taqman Gene Expression Master Mix (Life Technologies, USA) and 1 μL of Assays-on-DemandTM (Life Technologies, USA) of NK1 R (ACCESSION: NM_001058) and EDN1 (ACCESSION: NM_001168319) genes to 9 μL of the diluted cDNA, the expression of the genes was analyzed by relative quantification using 7500 Fast Real-Time PCR (Life Technologies, USA) with glyceraldehyde 3-phosphate dehydrogenase (GAPDH, ACCESSION: NM001256799) as a control gene. […]

EDN1 (endothelin 1) gene = experiment: Gene expression assay by real-time PCR: EDN1 gene in melanocytes; settings: melanocytes (KaMC), 2 nM substance P, 5 days; relative to GAPDH, control group = 1
Description: as §1

endothelin 1 (EDN1) = experiment: Endothelin 1 ELISA assay of culture medium of melanocytes; settings: melanocytes (KaMC) medium, 2 nM substance P; absorbance/total protein, control group = 100%
Description: When the density of the melanocytes on the 6-well plate reached about 80% (˜80% confluence), they were incubated for a total of 5 days with 2 nM of stress-inducing substance P (Bachem Fechemikalien, Bubendorf, Switzerland) or the masterwort (Peucedanum ostruthium) extract of Example 1 of different concentrations (0, 0.1, 1, 2 and 5 ppm). The cells not treated with substance P or the masterwort (Peucedanum ostruthium) extract of Example 1 were used as a control group.
The culture medium of the cells treated with the extract in (2) of Test Example 1 were recovered and the amount of endothelin 1 (EDN1) comprised in the medium was measured at 450 nm using the human total endothelin ELISA kit (MyBioSource, USA).
Endothelin content (%)=(Absorbance/Total protein)×100 Equation 1

- expression of the NK1R gene [1]: 4.2
Structure (SMILES): CSCC[C@H](NC(=O)[C@H](CC(C)C)NC(=O)CNC(=O)[C@H](Cc1ccccc1)NC(=O)[C@H](Cc1ccccc1)NC(=O)[C@H](CCC(N)=O)NC(=O)[C@H](CCC(N)=O)NC(=O)[C@@H]1CCCN1C(=O)[C@H](CCCCN)NC(=O)[C@@H]1CCCN1C(=O)[C@@H](N)CCCN=C(N)N)C(N)=O [substance P]
- expression of the EDN1 gene (EDN1 (endothelin 1) gene): 3.6
- content of endothelin 1 (endothelin 1 (EDN1)): 124%
